Source: patent US20020182112A1, “In vivo method for measuring binding of chemical actives to skin or specific constituents of skin” (Unilever Home & Personal Care USA, Division of Conopco, Inc., priority 2001, published 2002)
One block for each compound: values may come before it.

Biological target: Bovine Serum Albumim (BSA) (Bos taurus, UniProt P02769)
Assay: Pyranine fluorescence in BSA solution: replacement of pyranine from BSA binding sites by added surfactant
Details: for ratio of the fluorescence intensities from the deprotonated and protonated state (509 nm / 426 nm): pyranine 1.0×10^−8 M in 50 mM Hepes buffer pH 6.7, BSA 2.5 mg/ml, surfactant added at weight fraction 4×10^−5; for ratio of the fluorescence intensities 509 nm / 426 nm: no surfactant
Description: Fluorescence spectra of pyranine in solutions and on skin were obtained using a Perkin Elmer LS50B fluorometer. In the case of spectra taken on skin, the fiber optic probe accessory was used.
All spectra were taken at pyranine concentrations of 1.0×10^−8 M in 50 mM Hepes buffer (aqueous buffer solution with pH 6.7). Bovine Serum Albumim (BSA) concentrations were 2.5 mg/ml. Surfactant was added at weight fractions of 4×10^−5.
In order to test the applicability of pyranine fluorescence to monitor the binding of surfactants to proteins, applicants studied the effect of added surfactant on the fluorescence spectrum of aqueous solutions of pyranine and BSA. […] This effect can be explained by the replacement of pyranine molecules bound to BSA by SDS molecules leading to an increased concentration of pyranine in free solution and therefore a relative increase in intensity of the fluorescence from the deprotonated state. The ratio of the fluorescence intensities from the deprotonated and protonated site is a measure of the ability of a surfactant to replace pyranine from BSA binding sites.

Chain of Bovine Serum Albumim (BSA) (P02769 25-607): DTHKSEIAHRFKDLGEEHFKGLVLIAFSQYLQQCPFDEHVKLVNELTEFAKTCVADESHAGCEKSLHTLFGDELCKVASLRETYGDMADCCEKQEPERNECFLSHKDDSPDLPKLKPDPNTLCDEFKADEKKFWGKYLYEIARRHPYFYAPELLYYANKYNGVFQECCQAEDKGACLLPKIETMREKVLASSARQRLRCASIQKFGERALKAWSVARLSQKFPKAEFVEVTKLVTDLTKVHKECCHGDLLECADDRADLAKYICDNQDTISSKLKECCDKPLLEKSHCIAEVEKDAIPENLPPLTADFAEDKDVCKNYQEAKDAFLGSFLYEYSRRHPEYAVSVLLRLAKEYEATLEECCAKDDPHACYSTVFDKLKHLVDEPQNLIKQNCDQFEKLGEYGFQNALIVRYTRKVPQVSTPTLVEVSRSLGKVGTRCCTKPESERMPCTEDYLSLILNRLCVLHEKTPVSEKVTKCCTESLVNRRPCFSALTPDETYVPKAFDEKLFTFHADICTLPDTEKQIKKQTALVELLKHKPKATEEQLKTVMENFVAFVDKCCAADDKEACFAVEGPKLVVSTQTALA

Compound: CCCCCCCCCCCCOS(=O)(=O)[O-].[Na+] [SDS, sodium dodecyl sulphate]
effect of added surfactant on the fluorescence spectrum of pyranine and BSA (FIG. 2) (50 mM Hepes buffer, 2.5 mg/ml BSA, 4×10^−5 weight fraction SDS): significant increase of the relative intensity of the fluorescence from the deprotonated state
ratio of the fluorescence intensities from the deprotonated and protonated state (509 nm / 426 nm): 2.23

Compound: CCCCCCCCCCCC(=O)[O-].[Na+] [Sodium Laurate]
ratio of the fluorescence intensities from the deprotonated and protonated state (509 nm / 426 nm): 2.13

Compound: O=S(=O)(O)c1cc(O)c2ccc3c(S(=O)(=O)O)cc(S(=O)(=O)O)c4ccc1c2c34 [Pyranine, 8-hydroxyl-1 ,3,6-pyrene-trisulfonic acid]
ratio of the fluorescence intensities 509 nm / 426 nm (pyranine 1.0×10^−8 M in 50 mM Hepes buffer pH 6.7, no BSA): 8.03
ratio of the fluorescence intensities 509 nm / 426 nm (pyranine 1.0×10^−8 M in 50 mM Hepes buffer pH 6.7 with BSA 2.5 mg/ml): 1.17

Now from value to compound:

ratio of the fluorescence intensities from the deprotonated and protonated state (509 nm / 426 nm): 2.12
Compound: Sodiumlauryl Ether Sulfate

ratio of the fluorescence intensities from the deprotonated and protonated state (509 nm / 426 nm): 1.34
Compound: alkylpolyglycoside [APG]

ratio of the fluorescence intensities from the deprotonated and protonated state (509 nm / 426 nm): 1.56
Compound: Cocamilopropyl Betaine
